Test results published in the C3SDB collision cross section collection.
Where a name gives a salt, the structure may show the parent alone.

Conditions: [M+H-H2O]+; instrument: TW; calibrated with polyalanine and drug standards

Compared with COc1cc([C@@H]2c3cc4c(cc3[C@H](O)[C@H]3COC(=O)[C@H]23)OCO4)cc(OC)c1OC [PODOFILOX], CCC(C)(C)C(=O)O[C@H]1C[C@@H](C)C=C2C=C[C@H](C)[C@H](CC[C@@H]3C[C@@H](O)CC(=O)O3)[C@H]21 [SIMVASTATIN] is higher in “collision cross section (N2)” value: 190.1 Å² for the first, 199.6 Å² for the second.

Compared with CC1=CC(=O)[C@H]2C(C)(C)CCC[C@]2(C)[C@@]1(O)CCc1ccoc1 [SOLIDAGENONE], NCCc1c[nH]c2ccccc12 [TRYPTAMINE] is lower in “collision cross section (N2)” value: 170.6 Å² for the first, 124.4 Å² for the second.

Same assay, conditions: [M+H]+; instrument: TW; calibrated with polyalanine and drug standards

Going from COc1cc([C@@H]2c3cc4c(cc3[C@H](O)[C@H]3COC(=O)[C@H]23)OCO4)cc(OC)c1OC [PODOFILOX] to COc1cc2c(c(OC)c1OC)-c1ccc(O)c(=O)cc1[C@@H](N)CC2 [TRIMETHYLCOLCHICINIC ACID], the “collision cross section (N2)” value falls from 189.6 Å² to 181 Å².

Compared with O=C(C1CCCCC1)N1CC(=O)N2CCc3ccccc3C2C1 (stereo not drawn) [PRAZIQUANTEL], O=C(CCCN1CCC2(CC1)C(=O)NCN2c1ccccc1)c1ccc(F)cc1 [SPIPERONE] is higher in “collision cross section (N2)” value: 176.5 Å² for the first, 193.8 Å² for the second.

Compared with C[C@]12C=CC(=O)C=C1CC[C@@H]1[C@@H]2[C@@H](O)C[C@@]2(C)[C@H]1CC[C@]2(O)C(=O)COC(=O)CCC(=O)O [PREDNISOLONE HEMISUCCINATE], CC(=O)OCC(=O)[C@@]1(O)[C@H](OC(C)=O)C[C@H]2[C@@H]3CCC4=CC(=O)C=C[C@]4(C)[C@@]3(F)[C@@H](O)C[C@@]21C [TRIAMCINOLONE DIACETATE] is lower in “collision cross section (N2)” value: 210.3 Å² for the first, 209.5 Å² for the second.

First: COC(=O)[C@]1(C)CC[C@]2(C)CC[C@]3(C)C4=CC=C5C(=CC(=O)C(O)=C5C)[C@]4(C)CC[C@@]3(C)[C@@H]2C1 [PRISTIMERIN]
Second: CCC(=O)O[C@H]1CC[C@H]2[C@@H]3CCC4=CC(=O)CC[C@]4(C)[C@H]3CC[C@]12C [TESTOSTERONE PROPIONATE]
The “collision cross section (N2)” value of the first is higher: 211.2 Å² for the first, 188.2 Å² for the second.

Compared with CCCN(CCC)S(=O)(=O)c1ccc(C(=O)O)cc1 [PROBENECID], CCN(CC)CCOC(=O)c1ccc(N)cc1 [PROCAINE] is lower in “collision cross section (N2)” value: 161.4 Å² for the first, 154.7 Å² for the second.

Compared with CNCCCC1c2ccccc2C=Cc2ccccc21 [PROTRYPTYLINE HYDROCHLORIDE], O=C(Nc1ccccc1)c1ccccc1O [SALICYLANILIDE] is lower in “collision cross section (N2)” value: 162.8 Å² for the first, 143.9 Å² for the second.

Compared with CC(O)Cn1cnc2c1c(=O)n(C)c(=O)n2C (stereo not drawn) [PROXYPHYLLINE], CC1=C2[C@H]3OC(=O)[C@@H](C)[C@@H]3CC[C@@]2(C)C=CC1=O [SANTONIN] is higher in “collision cross section (N2)” value: 149.1 Å² for the first, 154.9 Å² for the second.

Compared with O=c1c(-c2ccc(O)cc2)coc2c([C@@H]3O[C@H](CO)[C@@H](O)[C@H](O)[C@H]3O)c(O)ccc12 [PUERARIN], C[C@@H]1O[C@@H](OC[C@H]2OC(Oc3c(-c4ccc(O)c(O)c4)oc4cc(O)cc(O)c4c3=O)[C@H](O)[C@@H](O)[C@@H]2O)[C@H](O)[C@H](O)[C@H]1O (stereo partly drawn) [RUTOSIDE  (rutin)] is higher in “collision cross section (N2)” value: 196.4 Å² for the first, 230.7 Å² for the second.

Compared with OCCOCCN1CCN(C2=Nc3ccccc3Sc3ccccc32)CC1 [QUETIAPINE], CC(C)(C)c1ccc(C(O)CCCN2CCC(C(O)(c3ccccc3)c3ccccc3)CC2)cc1 (stereo not drawn) [TERFENADINE] is higher in “collision cross section (N2)” value: 191.5 Å² for the first, 226.8 Å² for the second.

First: COC(=O)[C@H](Cc1ccccc1)NC(=O)/C(=C1\OC(=O)C(c2ccccc2)=C1O)c1ccccc1 [RHIZOCARPIC ACID]
Second: CCCCC1(COC(=O)CCC(=O)O)C(=O)N(c2ccccc2)N(c2ccccc2)C1=O [SUXIBUZONE]
The “collision cross section (N2)” value of the first is higher: 212.8 Å² for the first, 199.3 Å² for the second.

First: CO[C@H]1/C=C/O[C@@]2(C)Oc3c(C)c(O)c4c(c3C2=O)C(=O)/C(=C/NN2CCN(C)CC2)C(=C4O)NC(=O)/C(C)=C\C=C\[C@H](C)[C@H](O)[C@@H](C)[C@@H](O)[C@@H](C)[C@H](OC(C)=O)[C@@H]1C [RIFAMPIN]
Second: CC[C@H]1OC(=O)[C@H](C)C(=O)[C@H](C)[C@@H](O[C@@H]2O[C@H](C)C[C@H](N(C)C)[C@H]2O)[C@](C)(OC)C[C@@H](C)C(=O)[C@H](C)[C@H]2N(CCCCn3cnc(-c4cccnc4)c3)C(=O)O[C@]12C [TELITHROMYCIN]
The “collision cross section (N2)” value of the first is higher: 280.3 Å² for the first, 269.7 Å² for the second.

Compared with COc1ccc(-c2c(O)c3c(OC)c4c(cc3oc2=O)OC(C)(C)C=C4)cc1 [ROBUSTIC ACID], COc1ccc2c(c1)OC/C(=C\c1ccc(OC)c(O)c1)C2=O [SAPPANONE A DIMETHYL ETHER] is lower in “collision cross section (N2)” value: 190.3 Å² for the first, 170.3 Å² for the second.

Compared with CC[C@H]1OC(=O)[C@H](C)[C@@H](O[C@H]2C[C@@](C)(OC)[C@@H](O)[C@H](C)O2)[C@H](C)[C@@H](O[C@@H]2O[C@H](C)C[C@H](N(C)C)[C@H]2O)[C@](C)(O)C[C@@H](C)/C(=N\OCOCCOC)[C@H](C)[C@@H](O)[C@]1(C)O [ROXITHROMYCIN], C[C@@H]1O[C@@H](OC[C@H]2O[C@@H](Oc3c(-c4ccc(OCCO)c(OCCO)c4)oc4cc(OCCO)cc(O)c4c3=O)[C@H](O)[C@@H](O)[C@@H]2O)[C@H](O)[C@H](O)[C@H]1O [TROXERUTIN] is lower in “collision cross section (N2)” value: 276.1 Å² for the first, 259 Å² for the second.

Going from COc1ccc2c(c1O)-c1c(OC)c(OC)cc3c1[C@H](C2)N(C)CC3 [S-ISOCORYDINE (+)] to COc1ccc2cc1Oc1ccc(cc1)C[C@H]1c3cc(c(OC)cc3CCN1C)Oc1c(OC)c(OC)cc3c1[C@H](C2)N(C)CC3 [TETRANDRINE], the “collision cross section (N2)” value rises from 181.9 Å² to 245.3 Å².

First: C=CCc1ccc2c(c1)OCO2 [SAFROLE]
Second: O=c1oc2cc(O)ccc2s1 [TIOXOLONE]
The “collision cross section (N2)” value of the first is higher: 138.6 Å² for the first, 130.2 Å² for the second.

Going from COc1cc2ccc(=O)oc2cc1O [SCOPOLETIN] to COc1cc2ccc(=O)oc2c2ccoc12 [SPHONDIN], the “collision cross section (N2)” value rises from 133.6 Å² to 139.9 Å².

Compared with CC(=O)O[C@H]1CC[C@@]2(C)[C@H](CC[C@@H]3[C@@H]2CC[C@]2(C)[C@@H]4[C@H](C[C@@H]32)O[C@]2(CC[C@@H](C)CO2)[C@H]4C)C1 [SMILAGENIN ACETATE], CC[C@H](/C=C/[C@@H](C)[C@H]1CC[C@H]2[C@@H]3CCC4=CC(=O)CC[C@]4(C)[C@H]3CC[C@]12C)C(C)C [STIGMASTA-4,22-DIEN-3-ONE] is lower in “collision cross section (N2)” value: 222.1 Å² for the first, 218.5 Å² for the second.

Going from Nc1ccc(S(=O)(=O)NC(=O)c2ccccc2)cc1 [SULFABENZAMIDE] to Nc1ccc(S(=O)(=O)Nc2ccccn2)cc1 [SULFAPYRIDINE], the “collision cross section (N2)” value falls from 158.2 Å² to 151.6 Å².

Compared with Nc1ccc(S(=O)(=O)Nc2ccc(Cl)nn2)cc1 [SULFACHLORPYRIDAZINE], COc1ccc(NS(=O)(=O)c2ccc(N)cc2)nn1 [SULFAMETHOXYPYRIDAZINE] is higher in “collision cross section (N2)” value: 158.2 Å² for the first, 159.4 Å² for the second.

First: COc1cc(NS(=O)(=O)c2ccc(N)cc2)nc(OC)n1 [SULFADIMETHOXINE]
Second: COc1cc(NS(=O)(=O)c2ccc(N)cc2)ncn1 [SULFAMONOMETHOXINE]
The “collision cross section (N2)” value of the first is higher: 167.7 Å² for the first, 159.5 Å² for the second.

First: Cc1ccnc(NS(=O)(=O)c2ccc(N)cc2)n1 [SULFAMERAZINE]
Second: Cc1nnc(NS(=O)(=O)c2ccc(N)cc2)s1 [SULFAMETHIZOLE]
The “collision cross section (N2)” value of the first is higher: 156.3 Å² for the first, 155.2 Å² for the second.

Compared with Cc1cc(NS(=O)(=O)c2ccc(N)cc2)no1 [SULFAMETHOXAZOLE], CC(=O)N(c1onc(C)c1C)S(=O)(=O)c1ccc(N)cc1 [SULFISOXAZOLE ACETYL] is higher in “collision cross section (N2)” value: 151.4 Å² for the first, 161.2 Å² for the second.

First: O=C(O)C1=C/C(=N/Nc2ccc(S(=O)(=O)Nc3ccccn3)cc2)C=CC1=O [SULFASALAZINE]
Second: CC(C(=O)O)c1ccc(C(=O)c2cccs2)cc1 (stereo not drawn) [SUPROFEN]
The “collision cross section (N2)” value of the first is higher: 200.4 Å² for the first, 157.2 Å² for the second.

Compared with CC1=C(CC(=O)O)c2cc(F)ccc2/C1=C\c1ccc(S(C)=O)cc1 (stereo not drawn) [SULINDAC], COc1cc(S(C)=O)ccc1-c1nc2ncccc2[nH]1 (stereo not drawn) [SULMAZOLE] is lower in “collision cross section (N2)” value: 191.6 Å² for the first, 166.4 Å² for the second.

First: Cc1coc2c1C(=O)C(=O)c1c-2ccc2c1CCCC2(C)C [TANSHINONE IIA]
Second: CC(C)c1ccc2c(c1O)CC[C@H]1C3=C(CC[C@]21C)C(=O)OC3 [TRIPTOPHENOLIDE]
The “collision cross section (N2)” value of the first is lower: 164 Å² for the first, 179.4 Å² for the second.

First: O=C(O)C(O)C(O)C(=O)O (stereo not drawn) [TARTARIC ACID]
Second: O=C(O[C@@H]1Cc2c(O)cc(O)cc2O[C@@H]1c1cc(=O)c(O)c2c(O)c(O)cc([C@H]3Oc4cc(O)cc(O)c4C[C@H]3O)c2c1)c1cc(O)c(O)c(O)c1 [THEAFLAVIN MONOGALLATES]
The “collision cross section (N2)” value of the first is lower: 124.4 Å² for the first, 245.7 Å² for the second.

Compared with O=c1cc([C@H]2Oc3cc(O)cc(O)c3C[C@H]2O)cc2c([C@H]3Oc4cc(O)cc(O)c4C[C@H]3O)cc(O)c(O)c2c1O [THEAFLAVIN], COc1cc2c3cc1Oc1cc(ccc1O)C[C@@H]1c4c(cc(OC)c(O)c4Oc4ccc(cc4)C[C@@H]3N(C)CC2)CC[N+]1(C)C [TUBOCURARINE CHLORIDE] is higher in “collision cross section (N2)” value: 219.8 Å² for the first, 236 Å² for the second.

First: Nc1nc(=S)c2[nH]cnc2[nH]1 [THIOGUANINE]
Second: Nc1nc(=S)c2ncn([C@@H]3O[C@H](CO)[C@@H](O)[C@H]3O)c2[nH]1 [THIOGUANOSINE]
The “collision cross section (N2)” value of the first is lower: 129.7 Å² for the first, 164 Å² for the second.

Compared with CSc1nc2cc(Oc3cccc(Cl)c3Cl)c(Cl)cc2[nH]1 [TRICLABENDAZOLE], Cc1cc2cc3c(C)cc(=O)oc3c(C)c2o1 [TRIOXSALEN] is lower in “collision cross section (N2)” value: 179.3 Å² for the first, 147.4 Å² for the second.

With CC(C)[C@@H]1NC(=O)[C@H](C)OC(=O)[C@@H](C(C)C)NC(=O)[C@@H](C(C)C)OC(=O)[C@H](C(C)C)NC(=O)[C@H](C)OC(=O)[C@@H](C(C)C)NC(=O)[C@@H](C(C)C)OC(=O)[C@H](C(C)C)NC(=O)[C@H](C)OC(=O)[C@@H](C(C)C)NC(=O)[C@@H](C(C)C)OC1=O [VALINOMYCIN] the “collision cross section (N2)” value was 327.4 Å².
